Laboratory results from patent publication US9320271B2, “Microbial composition” (Rohm and Haas Company, priority 2011, dated 2016).

Assays:
[1] = test system: Escherichia coli (E. coli—ATCC #10536); assay: Automated assessment of efficacy in surfactant base (2.85% sodium cocoyl glycinate and 1.85% sodium lauroamphoacetate, pH 10.0), 15 seconds exposure; type: cell-based; details: for Δ OD 450 nm = OD450 (time = 16 hours) − OD450 (time zero), Mean / Δ OD 590 nm OD590 (time = 16 hours) − OD590 (time zero), Mean / No. of replicates showing growth (out of 4): alone, model surfactant solution; for MBC (minimum biocidal concentration): in 2.85% sodium cocoyl glycinate + 1.85% sodium lauroamphoacetate solution at pH 10, E. coli
Procedure: Test Methodology for Automated Assessment of Efficacy in Surfactant Base Microbiocidal Activity of Actives as Per the Invention in a Model Surfactant Medium Test Methodology for Automated Assessment of Efficacy in Surfactant Base In these examples, the efficacy of combinations of actives were tested in a surfactant cleansing formulation comprising 2.85% sodium cocoyl glycinate and 1.85% sodium lauroamphoacetate. This corresponds to a 50% in use dilution with water of a neat formulation containing 5.7% cocoyl glycinate and […] % sodium, lauroamphoacetate during hand washing. Solutions were prepared such that the concentrations of the surfactant components and test actives were 1.1× the final desired concentration in order to allow for dilution with the bacterial inoculum in the test. The solutions were manually adjusted to pH 10.0 by dropwise addition of sodium hydroxide solution, as measured with a pH meter at ambient temperature. The efficacy of the combinations of the present invention was determined against Escherichia coli (E. coli—ATCC #10536), at a concentration of approximately 1×10^8 bacteria per mL. Tests were conducted using standard microtiter plate assays using an automated liquid handling system. 270 μl of the surfactant test solution was pipetted into each well of the microtitre plate and 30 μl of the bacterial suspension was then added. Alter exactly 15 seconds of bacterial exposure, a 30 μl volume of bacterial cells was withdrawn and transferred to 270 μl of D/E quench solution. After 5 minutes in the D/E quench, the optical density (OD) was measured for each plate in turn at two specific wavelengths (450 nm and 590 nm). These provide a dual check of antimicrobial activity, as the OD450 reading is specific for the yellow colour of D/E quench when bacterial growth is observed, whereas OD590 is specific for the initial purple colour of the D/E quench which is retained if no bacterial growth is observed. After the time zero OD measurements, plates were then incubated at 37° C. overnight (16 hours) before repeating the OD measurements. Delta OD values were calculated by subtracting […]. Bacterial growth is observed as an increase in OD450 and a decrease in ΔOD590. To identify antibacterially efficacious systems (those preventing appreciable bacterial growth after incubation), the following threshold changes in OD readings have been adopted: if (1). OD450 increases by less than 0.2 absorbance unit on incubation and (2). OD590 decreases by less than 0.35 unit on incubation. Conversely, where OD450 increases by more than 0.2 AU and OD590 decreases by more than 0.35 unit after incubation, corresponding to a colour shift from purple to yellow, the test system allows bacterial growth and is not deemed efficacious. Four replicate measurements in the same plate have been made for each test system. The number of replicate wells showing either bacterial growth or no growth is also readily assessed by eye by following the colour change. Dose responses for individual components and binary mixtures of actives at a fixed concentration ratio were generated by sequential dilution of liquors with further surfactant solution to obtain a series of endpoints. […] In some selected cases, the combinations were also tested at the weight ratio 1:1.

[2] = test system: Escherichia coli (10536 strain); assay: 15 second contact kill test versus E. coli (actives in water, mean bacterial survival NMBS); type: cell-based; details: component alone; for MBC (minimum biocidal concentration of antimicrobial components): Table 27; for Antimicrobial alcohol MBC: Table 28, E. coli
Procedure: 15 Second Contact Kill Test Versus E. Coli and S. Aureus
Antimicrobial efficacy is tested against a representative pathogenic bacterial organism, Gram negative Escherichia coli. Concentrations of actives are expressed in terms of the percentage weight/volume (% w/v) throughout Example 1.
An overnight culture of Escherichia coli (10536 strain) was prepared in 50 ml total volume of TSB broth, grown for ca. 18 hrs at 37° C. and shaken at 150 rpm. 1 ml of this overnight E. coli culture was transferred to 50 ml of fresh TSB broth and incubated at 37° C. at 150 rpm for ca. 4 hours. This culture was separated into equal volumes and centrifuged at 4000 rpm for 15 minutes, washed with sterile saline (0.85% NaCl), centrifuged once more and re-suspended in saline to give a final concentration of 0.8 OD620 equivalent to about 10^8 cells per milliliter for this particular organism. Here, OD620 indicates the absorbance of a sample in a cuvette of 1.0 cm path length at a wavelength of 620 nm. This bacterial stock was used for assaying against antimicrobial actives (in triplicate). S. Aureus Bacterial Stock
The following assay describes the testing of 8 materials using 6 dilutions across half of a 96-well micro titre plate (MTP). Using this approach it is possible to assay 16 actives (without replicates) with one full dilution plate, replicating this set up in two halves of the plate columns, 1-6 and 7-12. 1M solutions of the test actives were prepared in dimethylsulphoxide (DMSO). […] Aliquots (270 μl) of the materials at 1.11 times the final concentration were dispensed into the wells of the MTP along one column (A1-H1). This MTP was labelled as the “Screening plate”. In another MTP, labelled as the “Dilution plate”, […] of D/E neutralising solution from DIFCO Composition was added to column 1. The composition of the neutralising solution was as follows: pancreatic digest of casein, 5.0 g/L; Yeast Extract, 2.5 g/L; Dextrose, 10 g/L, sodium thioglycollate, 1.0 g/L, sodium thiosulphate, 6.0 g/L; sodium bisulphite, 2.5 g/L; Polysorbate 80, 5.0 g/L; lecithin 7.0 g/L; bromocresol purple, 0.02 g/L with a pH in the range 7.6±0.2. 270 μl of tryptone diluent solution was added to all the remaining wells of the Dilution MTP (columns 2-6). Bacterial stock (30 μl) was then added to the prepared 270 μl of the solution of actives in the Screening Plate and mixed, using a multichannel pipette with 8 tips to aspirate and dispense the same volume of bacterial stock in parallel to 8 wells in rows A-H. After a contact time of 15 seconds, the mixtures were quenched by transferring 30 μl volumes of the mixtures into the 270 μl D/E neutralising solution in the prepared dilution plate, using aspiration to mix. After exactly 5 minutes in the D/E neutralising solution, 30 μl volumes were transferred from column 1 to column 2 of the Dilution MTP and mixed, before transferring further 30 μl volumes from column 2 into column 3. This process was repeated serially diluting the bacteria across the plate to column 6. 30 μl volumes from each well in the Dilution MTP were transferred onto pre-labelled segment of Tryptone Soya Agar (TSA) plates starting from the lowest bacterial concentration (highest dilution, column 6) to the highest bacterial concentration (column 1). The TSA plates were allowed to stand for ca. 2 hours so that the 30 μl inocula spots could dry and the plates were then inverted and incubated overnight at 37° C. before enumerating the bacterial colonies at the labelled dilutions to determine the effects of the actives on bacterial growth. Calculation of Results Mean bacterial survival numbers NMBS (expressed in Log CFU/ml) are obtained by first determining the segment of the TSA plate where the number of bacterial colonies is countable.

Structure (SMILES) | Δ OD 450 nm = OD450 (time = 16 hours) − OD450 (time zero), Mean ([1]; 0.2% w/v) | Δ OD 590 nm OD590 (time = 16 hours) − OD590 (time zero), Mean ([1]; 0.2% w/v) | Δ OD 450 nm = OD450 (time = 16 hours) − OD450 (time zero), Mean ([1]; 0.3% w/v) | Δ OD 590 nm OD590 (time = 16 hours) − OD590 (time zero), Mean ([1]; 0.3% w/v) | No. of replicates showing growth (out of 4) ([1]; 0.5% w/v) | Δ OD 450 nm = OD450 (time = 16 hours) − OD450 (time zero), Mean ([1]; 0.5% w/v) | Δ OD 590 nm OD590 (time = 16 hours) − OD590 (time zero), Mean ([1]; 0.5% w/v) | Δ OD 450 nm = OD450 (time = 16 hours) − OD450 (time zero), Mean ([1]; […] w/v) | Δ OD 590 nm OD590 (time = 16 hours) − OD590 (time zero), Mean ([1]; […] w/v) | MBC (minimum biocidal concentration) [1] [% w/v] | MBC (minimum biocidal concentration of antimicrobial components) [2] [% w/v] | Antimicrobial alcohol MBC [2] | No. of replicates showing growth (out of 4) ([1]; 0.3% w/v)
CC1=CC[C@@H](CO)[C@H](C)C1 (relative stereo) [floralol, Trans-4,6-dimethyl-3-Cyclohexene-1-methanol] | −1.43 | 0.35 | −1.20 | 0.55 | 0 | −0.06 | 0.09 | −0.29 | 0.23 | 0.4 | 0.3 | 0.3 % (w/v) | 
CC1CCC(CO)C(C)C1 (stereo not shown) [dihydrofloralol, 2,4-Dimethylcyclohexylmethanol] | −1.39 | 0.41 | −1.15 | 0.60 | 0 | −0.06 | 0.10 | −0.28 | 0.28 | 0.4 | 0.5 | 0.5 % (w/v) | 4
